Activity calls are given as the source filed them.
Columns and labels:
[1] = target: Peroxisome proliferator-activated receptor gamma/Nuclear receptor coactivator 1 (Homo sapiens, UniProt P37231); test: (§1) TR-FRET dose response biochemical High Throughput Screening assay for agonists of the steroid receptor coactivator 1 (SRC-1) recruitment by the peroxisome proliferator-activated receptor gamma (PPAR gamma): non-selective agonists. [Related pubchem assays (depositor defined):AID1300, AID1808, AID504735, AID631]; format: protein assay
Sequence of Peroxisome proliferator-activated receptor gamma/Nuclear receptor coactivator 1 (P37231 whole entry): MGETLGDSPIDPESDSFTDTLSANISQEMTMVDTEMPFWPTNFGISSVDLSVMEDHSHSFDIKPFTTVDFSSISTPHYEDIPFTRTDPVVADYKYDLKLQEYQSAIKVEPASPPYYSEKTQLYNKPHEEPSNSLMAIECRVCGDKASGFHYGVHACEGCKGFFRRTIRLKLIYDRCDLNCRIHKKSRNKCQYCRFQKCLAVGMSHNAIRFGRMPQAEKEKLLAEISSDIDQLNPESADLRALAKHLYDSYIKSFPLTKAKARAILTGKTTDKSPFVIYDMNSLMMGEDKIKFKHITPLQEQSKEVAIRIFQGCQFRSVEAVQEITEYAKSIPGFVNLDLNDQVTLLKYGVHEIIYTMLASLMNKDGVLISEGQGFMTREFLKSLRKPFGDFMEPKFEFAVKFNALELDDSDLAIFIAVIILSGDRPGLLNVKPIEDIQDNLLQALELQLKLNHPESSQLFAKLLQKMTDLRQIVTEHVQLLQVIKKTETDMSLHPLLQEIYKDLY
Sequence of Peroxisome proliferator-activated receptor gamma/Nuclear receptor coactivator 1 (Q15788 whole entry, further chain): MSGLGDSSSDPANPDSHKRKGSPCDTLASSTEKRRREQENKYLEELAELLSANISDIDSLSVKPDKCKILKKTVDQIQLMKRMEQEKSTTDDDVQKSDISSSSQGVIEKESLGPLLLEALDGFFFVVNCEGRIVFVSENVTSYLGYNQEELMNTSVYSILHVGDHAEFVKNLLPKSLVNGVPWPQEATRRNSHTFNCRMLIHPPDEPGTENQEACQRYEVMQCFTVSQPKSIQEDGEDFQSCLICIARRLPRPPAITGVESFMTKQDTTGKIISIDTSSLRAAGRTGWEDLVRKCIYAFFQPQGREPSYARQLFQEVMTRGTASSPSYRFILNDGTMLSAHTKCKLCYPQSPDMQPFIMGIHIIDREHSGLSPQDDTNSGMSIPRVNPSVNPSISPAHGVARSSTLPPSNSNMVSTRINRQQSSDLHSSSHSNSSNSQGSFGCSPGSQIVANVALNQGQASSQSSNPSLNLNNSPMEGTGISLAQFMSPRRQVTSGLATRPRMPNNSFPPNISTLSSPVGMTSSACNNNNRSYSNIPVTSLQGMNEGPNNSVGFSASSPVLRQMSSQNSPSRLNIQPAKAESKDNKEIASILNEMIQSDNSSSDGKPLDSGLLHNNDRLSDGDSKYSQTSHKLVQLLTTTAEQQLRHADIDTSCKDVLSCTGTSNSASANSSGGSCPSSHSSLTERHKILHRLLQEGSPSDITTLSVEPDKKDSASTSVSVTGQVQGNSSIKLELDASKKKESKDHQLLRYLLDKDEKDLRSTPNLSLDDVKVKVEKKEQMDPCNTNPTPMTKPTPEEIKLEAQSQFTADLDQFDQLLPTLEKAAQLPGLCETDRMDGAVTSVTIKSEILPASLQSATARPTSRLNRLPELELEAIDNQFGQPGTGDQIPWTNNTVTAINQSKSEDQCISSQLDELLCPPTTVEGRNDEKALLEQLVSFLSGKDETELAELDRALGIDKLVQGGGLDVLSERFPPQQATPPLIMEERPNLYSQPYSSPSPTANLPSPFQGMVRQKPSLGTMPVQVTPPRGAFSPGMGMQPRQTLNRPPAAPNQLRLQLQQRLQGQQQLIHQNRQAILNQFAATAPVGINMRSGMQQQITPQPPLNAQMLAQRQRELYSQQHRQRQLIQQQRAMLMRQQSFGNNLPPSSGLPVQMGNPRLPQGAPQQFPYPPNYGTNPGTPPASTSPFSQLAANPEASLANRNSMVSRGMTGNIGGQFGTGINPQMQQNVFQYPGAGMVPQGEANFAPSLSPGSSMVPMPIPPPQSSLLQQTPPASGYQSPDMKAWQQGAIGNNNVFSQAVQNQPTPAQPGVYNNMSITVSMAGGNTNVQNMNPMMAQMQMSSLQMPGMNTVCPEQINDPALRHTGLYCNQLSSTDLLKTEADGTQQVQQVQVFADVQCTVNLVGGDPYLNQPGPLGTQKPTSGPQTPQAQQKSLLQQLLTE

[2] = target: Peroxisome proliferator-activated receptor gamma/Nuclear receptor coactivator 3 (Homo sapiens, UniProt P37231); test: as §1, with “3 (SRC-3)” for “1 (SRC-1)”, “assays: 1301 (Confirmation screen.), 1048 (Primary screen.)]” for “assays (depositor defined):AID1300, AID1808, AID504735, AID631]”; format: functional
Sequence of Peroxisome proliferator-activated receptor gamma/Nuclear receptor coactivator 3 (P37231 whole entry): as the sequence (P37231 whole entry) above
Sequence of Peroxisome proliferator-activated receptor gamma/Nuclear receptor coactivator 3 (Q9Y6Q9 whole entry, further chain): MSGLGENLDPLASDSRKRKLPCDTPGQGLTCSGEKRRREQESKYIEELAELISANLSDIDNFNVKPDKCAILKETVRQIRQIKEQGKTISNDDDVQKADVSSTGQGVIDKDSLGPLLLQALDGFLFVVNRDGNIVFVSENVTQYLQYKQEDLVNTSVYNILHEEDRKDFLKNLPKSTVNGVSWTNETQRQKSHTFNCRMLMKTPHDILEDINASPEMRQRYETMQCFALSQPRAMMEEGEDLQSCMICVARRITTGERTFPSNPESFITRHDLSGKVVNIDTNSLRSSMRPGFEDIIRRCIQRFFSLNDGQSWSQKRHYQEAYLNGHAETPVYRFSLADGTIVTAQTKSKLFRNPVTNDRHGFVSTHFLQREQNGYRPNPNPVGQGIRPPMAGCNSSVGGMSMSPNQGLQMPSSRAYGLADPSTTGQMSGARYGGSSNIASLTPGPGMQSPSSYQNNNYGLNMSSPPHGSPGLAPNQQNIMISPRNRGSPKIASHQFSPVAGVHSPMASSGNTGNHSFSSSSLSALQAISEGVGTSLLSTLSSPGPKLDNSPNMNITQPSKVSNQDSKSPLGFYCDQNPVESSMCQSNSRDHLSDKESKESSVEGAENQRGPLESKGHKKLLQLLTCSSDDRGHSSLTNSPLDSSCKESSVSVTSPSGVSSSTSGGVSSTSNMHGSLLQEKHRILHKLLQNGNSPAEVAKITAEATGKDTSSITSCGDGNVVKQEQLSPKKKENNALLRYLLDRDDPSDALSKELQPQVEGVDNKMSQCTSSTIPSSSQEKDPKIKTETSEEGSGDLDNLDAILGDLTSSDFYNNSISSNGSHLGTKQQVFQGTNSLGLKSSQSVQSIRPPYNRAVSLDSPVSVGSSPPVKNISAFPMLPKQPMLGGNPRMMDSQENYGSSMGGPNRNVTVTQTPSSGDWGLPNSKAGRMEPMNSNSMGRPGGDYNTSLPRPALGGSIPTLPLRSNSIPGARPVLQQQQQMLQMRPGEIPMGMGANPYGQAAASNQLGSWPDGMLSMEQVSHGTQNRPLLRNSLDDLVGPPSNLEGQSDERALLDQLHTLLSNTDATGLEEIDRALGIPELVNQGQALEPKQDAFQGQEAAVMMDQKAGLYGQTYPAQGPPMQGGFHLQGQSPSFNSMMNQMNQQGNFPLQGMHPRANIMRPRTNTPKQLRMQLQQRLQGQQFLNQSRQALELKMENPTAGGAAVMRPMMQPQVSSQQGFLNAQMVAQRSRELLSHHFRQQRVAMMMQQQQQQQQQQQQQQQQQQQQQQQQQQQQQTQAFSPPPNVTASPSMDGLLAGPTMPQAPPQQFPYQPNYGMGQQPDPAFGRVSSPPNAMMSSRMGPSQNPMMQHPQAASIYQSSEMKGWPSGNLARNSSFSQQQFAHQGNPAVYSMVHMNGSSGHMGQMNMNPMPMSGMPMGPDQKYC

[3] = target: Peroxisome proliferator-activated receptor gamma/Nuclear receptor coactivator 2 (Homo sapiens, UniProt P37231); test: TR-FRET dose response biochemical High Throughput Screening assay for agonists of the steroid receptor coactivator 2 (SRC-2) recruitment by the peroxisome proliferator-activated receptor gamma (PPAR gamma): non-selective agonists. [Related pubchem assays: 1297, 1032 ]; format: functional
Vero [4] = test: cells; format: functional, cell-based; conditions: Chlorocebus sabaeus
Vero [5] = test: cells; format: functional; conditions: Chlorocebus sabaeus
Cytochrome P450 3A4 = Cytochrome P450 3A4 (Homo sapiens, UniProt P08684);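 also: CYP3A4 tested as one member of a cytochrome P450 panel screen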
Sequence of Cytochrome P450 3A4 (P08684 whole entry): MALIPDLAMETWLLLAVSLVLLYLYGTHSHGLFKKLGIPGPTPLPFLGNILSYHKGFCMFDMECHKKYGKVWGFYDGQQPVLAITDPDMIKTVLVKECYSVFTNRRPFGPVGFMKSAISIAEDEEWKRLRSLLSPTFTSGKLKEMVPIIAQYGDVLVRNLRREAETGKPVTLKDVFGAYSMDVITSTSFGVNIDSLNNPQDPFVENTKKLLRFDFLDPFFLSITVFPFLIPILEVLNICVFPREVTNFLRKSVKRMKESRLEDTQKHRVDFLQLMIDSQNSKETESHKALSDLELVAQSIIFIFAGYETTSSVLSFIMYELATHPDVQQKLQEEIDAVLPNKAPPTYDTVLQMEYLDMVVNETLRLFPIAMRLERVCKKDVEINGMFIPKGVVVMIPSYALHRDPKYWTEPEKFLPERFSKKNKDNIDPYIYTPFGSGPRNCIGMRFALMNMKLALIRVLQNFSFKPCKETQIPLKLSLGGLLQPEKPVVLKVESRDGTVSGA

Bcl-2-related protein A1 = target: T1, Bcl-2-related protein A1 (Mus musculus, UniProt Q07440); format: functional;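 also: confirmatory dose–response counterscreen on Bfl-1, used to check hits from a UBC13 polyubiquitin inhibitor campaign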
T1 sequence (Q07440 whole entry): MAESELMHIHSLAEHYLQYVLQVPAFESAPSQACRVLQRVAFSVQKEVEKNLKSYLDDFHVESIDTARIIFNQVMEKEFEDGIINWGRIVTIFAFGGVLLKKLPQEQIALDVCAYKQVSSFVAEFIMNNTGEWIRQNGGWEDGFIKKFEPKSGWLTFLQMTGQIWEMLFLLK

[6] = target: T2, Ubiquitin-conjugating enzyme E2 N (Homo sapiens, UniProt P61088); format: functional
T2 sequence (P61088 whole entry): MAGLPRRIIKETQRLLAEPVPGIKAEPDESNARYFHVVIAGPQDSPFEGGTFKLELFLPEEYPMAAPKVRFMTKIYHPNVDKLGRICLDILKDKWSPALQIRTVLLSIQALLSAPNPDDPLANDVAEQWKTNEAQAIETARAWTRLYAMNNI

[7] = target: T2, Ubiquitin-conjugating enzyme E2 N; format: functional; remark: listed apart in the source
Vero [8] = test: viability of Vero cells under compound – cytotoxicity control for flavivirus capping enzyme inhibitors (AID 588742); format: functional; conditions: Chlorocebus sabaeus
[9] = target: T3, Apoptotic protease-activating factor 1 (Homo sapiens, UniProt O14727); format: functional
T3 sequence (O14727 whole entry): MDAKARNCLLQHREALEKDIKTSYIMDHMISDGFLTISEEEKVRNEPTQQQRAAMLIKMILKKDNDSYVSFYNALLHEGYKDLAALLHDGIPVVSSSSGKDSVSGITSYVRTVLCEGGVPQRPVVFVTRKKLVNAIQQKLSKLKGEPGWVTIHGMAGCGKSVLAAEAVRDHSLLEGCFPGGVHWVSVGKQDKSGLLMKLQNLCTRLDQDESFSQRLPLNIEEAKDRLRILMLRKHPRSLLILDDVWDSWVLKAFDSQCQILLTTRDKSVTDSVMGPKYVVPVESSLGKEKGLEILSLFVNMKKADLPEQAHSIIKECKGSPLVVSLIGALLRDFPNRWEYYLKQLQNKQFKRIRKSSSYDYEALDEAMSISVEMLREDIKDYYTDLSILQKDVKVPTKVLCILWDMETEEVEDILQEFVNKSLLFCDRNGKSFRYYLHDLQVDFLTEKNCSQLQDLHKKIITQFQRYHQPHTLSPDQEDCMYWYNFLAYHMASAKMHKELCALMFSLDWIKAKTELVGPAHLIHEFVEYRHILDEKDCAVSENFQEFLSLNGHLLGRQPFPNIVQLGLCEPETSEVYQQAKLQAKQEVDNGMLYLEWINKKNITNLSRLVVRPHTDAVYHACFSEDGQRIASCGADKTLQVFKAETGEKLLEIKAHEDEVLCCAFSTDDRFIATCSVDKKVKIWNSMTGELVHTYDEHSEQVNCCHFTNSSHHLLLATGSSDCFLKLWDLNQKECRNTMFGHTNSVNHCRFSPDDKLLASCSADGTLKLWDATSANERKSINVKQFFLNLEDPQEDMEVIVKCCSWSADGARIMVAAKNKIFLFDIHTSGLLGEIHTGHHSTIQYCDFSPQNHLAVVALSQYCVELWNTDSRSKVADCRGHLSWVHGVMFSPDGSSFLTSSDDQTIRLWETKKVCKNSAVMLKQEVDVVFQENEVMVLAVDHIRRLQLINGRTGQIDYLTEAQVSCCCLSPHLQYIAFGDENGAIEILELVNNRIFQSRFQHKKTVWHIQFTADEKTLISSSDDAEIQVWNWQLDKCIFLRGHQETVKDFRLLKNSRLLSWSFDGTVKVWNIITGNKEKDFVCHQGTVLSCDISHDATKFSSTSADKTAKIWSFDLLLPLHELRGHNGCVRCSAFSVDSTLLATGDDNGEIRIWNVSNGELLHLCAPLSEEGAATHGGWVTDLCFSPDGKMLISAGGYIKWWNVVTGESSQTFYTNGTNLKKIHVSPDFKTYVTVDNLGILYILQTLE

INS1 = test: INS-1E survival protection against cytokine death – cell-based, luminescence, retest, dose response (AID 449756); format: functional; conditions: Rattus norvegicus, INS1;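 also: cell death triggered by IL-1 beta plus TNF-alpha plus IFN-gamma mixture; protective hits raise ATP signal compared with cytokine alone wells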
Galanin receptor type 3 = target: T4, Galanin receptor type 3 (Homo sapiens, UniProt O60755); test: Fluorescence-based cell-based primary high throughput dose response assay to identify antagonists of the Galanin Receptor 3 (GalR3).; format: functional
T4 sequence (O60755 whole entry): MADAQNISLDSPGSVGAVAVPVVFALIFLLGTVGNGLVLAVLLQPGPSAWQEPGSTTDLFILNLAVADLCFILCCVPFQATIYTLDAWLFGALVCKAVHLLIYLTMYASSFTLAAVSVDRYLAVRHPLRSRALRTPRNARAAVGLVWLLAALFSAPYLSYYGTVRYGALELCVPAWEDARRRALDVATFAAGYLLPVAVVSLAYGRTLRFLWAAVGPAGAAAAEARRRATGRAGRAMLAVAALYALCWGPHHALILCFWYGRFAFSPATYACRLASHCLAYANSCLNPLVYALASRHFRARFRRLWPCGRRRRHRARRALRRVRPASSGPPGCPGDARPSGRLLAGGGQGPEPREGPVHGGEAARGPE

cells = format: functional, cell-based; conditions: HEK-CNG
[10] = target: T5, Endoribonuclease toxin MazF (Escherichia coli K-12, UniProt P0AE70); test: activation of MazEF endoribonuclease cleavage – biochemical, fluorescence, single-stranded RNA substrate, uHTS hits, dose response (AID 588481); format: functional
T5 sequence (P0AE70 whole entry): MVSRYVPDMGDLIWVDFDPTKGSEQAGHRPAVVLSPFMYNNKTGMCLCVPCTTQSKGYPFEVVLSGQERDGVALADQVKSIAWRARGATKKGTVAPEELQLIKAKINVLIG

[11] = target: T5, Endoribonuclease toxin MazF; test: substrate-only fluorescence increase artefacts – biochemical, single-stranded RNase substrate, counter-screen for MazEF activator project, dose response (AID 588502); format: functional

**Q.** With `CC(C)Sc1oc(-c2ccco2)nc1S(=O)(=O)c1ccccc1` as the compound, how does the EC50 [1] read?
**A.** 6.48 µM (active)

**Q.** And the EC50 [2]?
**A.** > 79.4 µM (not active)

**Q.** What about the EC50 [3] of the same compound?
**A.** 9.32 µM (active)

**Q.** Which IC50 (Vero [4]) does the source give for `COc1cccc(-c2ccc(NC(=O)C3CCCN(Cc4cnc(C)n4C)C3)cc2)c1` (stereo unspecified) here?
**A.** 20.3 µM (active)

**Q.** And the CC50 (Vero [5])?
**A.** > 25 µM (active)

**Q.** Which EC50 [1] does the source give for `O=c1c(Cl)c(N2CCN(S(=O)(=O)c3ccc(F)cc3)CC2)cnn1-c1cccc(Cl)c1` here?
**A.** 9.63 µM (active)

**Q.** And the EC50 [2]?
**A.** 18.7 µM (not active)

**Q.** And the EC50 [3]?
**A.** 9.06 µM (active)

**Q.** What about the AC50 (Cytochrome P450 3A4) of the same compound?
**A.** 20 µM (inconclusive)

**Q.** For `ClCc1csc(-c2ccccc2Cl)n1`, which EC50 [1] is on record?
**A.** > 79.4 µM (inactive)

**Q.** What about the EC50 [2] of the same compound?
**A.** > 79.4 µM (not active)

**Q.** And the EC50 [3]?
**A.** > 79.4 µM (not active)

**Q.** What does the source list for `O=C(c1cccc(S(=O)(=O)N2CCCC2)c1)N1CCCC(C(F)(F)F)C1` (stereo unspecified)?
**A.** IC50 (Bcl-2-related protein A1): > 20 µM (inactive); IC50 [6]: 10.7 µM (active); IC50 [7]: 8.31 µM (active)

**Q.** Which CC50 (Vero [8]) does the source give for `CCN1CCN(C2=C(NS(=O)(=O)c3ccccc3)C(=O)c3ccccc3C2=O)CC1` here?
**A.** 24.8 µM (active)

**Q.** What about the IC50 [9] of the same compound?
**A.** 19.1 µM (active)

**Q.** What about the AC50 (INS1) of the same compound?
**A.** 5.62 µM (active)

**Q.** For `O=C(NCC1CCN(Cc2ccc(Cl)cc2)CC1)C1CCCN(c2ncnc3c2nc2n3CCCCC2)C1` (stereo unspecified), which IC50 (Bcl-2-related protein A1) is on record?
**A.** > 20 µM (inactive)

**Q.** What about the IC50 [6] of the same compound?
**A.** 7.67 µM (active)

**Q.** What about the IC50 [7] of the same compound?
**A.** 8.14 µM (active)

**Q.** And the IC50 (Galanin receptor type 3)?
**A.** > 29.9 µM (inactive)

**Q.** And the EC50 (cells)?
**A.** > 29.9 µM (inactive)

**Q.** Which EC50 [10] does the source give for `CCCn1c(SCC(=O)Nc2nc3ccccc3s2)nc2c1c(=O)n(C)c(=O)n2C` here?
**A.** > 99 µM (inactive)

**Q.** And the EC50 [11]?
**A.** > 99 µM (inactive)

**Q.** Which EC50 [10] does the source give for `N#C/C(=C/C1=C(N2CCOCC2)C(=C/c2cccc([N+](=O)[O-])c2)/CC1)C(=O)Nc1ccccc1F` here?
**A.** > 99 µM (inactive)

**Q.** What about the EC50 [11] of the same compound?
**A.** > 99 µM (inactive)

**Q.** For `Cc1ccc(N(Cc2ccccc2)C(=O)CSC(C)C(=O)Nc2cc(C)on2)cc1` (stereo unspecified), which IC50 (Vero [4]) is on record?
**A.** 15.6 µM (active)

**Q.** What about the CC50 (Vero [5]) of the same compound?
**A.** 23.3 µM (active)

**Q.** With `Cn1ncc(/N=C/c2c(O)ccc3ccccc23)c1C(=O)Nc1cccc(Cl)c1` as the compound, how does the EC50 [10] read?
**A.** 26.2 µM (inactive)

**Q.** What about the EC50 [11] of the same compound?
**A.** 94.5 µM (inactive)
